Our source for the MIC, HC50 and selectivity ratio values is ChEMBL document CHEMBL4831516, “Development of Membrane-Active Honokiol/Magnolol Amphiphiles as Potent Antibacterial Agents against Methicillin-Resistant Staphylococcus aureus (MRSA)” (J Med Chem, 2021).

The subject of the first series is Staphylococcus aureus. The series can be described thus: Antibacterial activity against methicillin-resistant Staphylococcus aureus clinical isolate M-11 assessed as inhibition of visible growth incubated for 16 to 18 hrs by CLSI method. Format: functional. As to conditions: time 16-18 hrs, read-out: MIC100.
Turning to `C=CCc1ccc(OCC[N+](C)(C)CC(=O)NCCCC)c(-c2ccc(OCC[N+](C)(C)CC(=O)NCCCC)c(CC=C)c2)c1.[Br-].[Br-]`, the MIC came to 4 µg/mL.

For the compound `C=CCc1ccc(O)c(-c2cc(CC=C)ccc2OCCCC[N+](C)(C)CC(=O)NCCCCC)c1.[Br-]`, the MIC stood at 4 µg/mL.

Another series deals with Staphylococcus aureus. The series can be described thus: Antibacterial activity against methicillin-resistant Staphylococcus aureus clinical isolate M-16 assessed as inhibition of visible growth incubated for 16 to 18 hrs by CLSI method. Format: functional. As to conditions: time 16-18 hrs, read-out: MIC100.
Turning to `C=CCc1ccc(OCC[N+](C)(C)CC(=O)NCCCC)c(-c2ccc(OCC[N+](C)(C)CC(=O)NCCCC)c(CC=C)c2)c1.[Br-].[Br-]`, the MIC worked out at 8 µg/mL.

On to `C=CCc1ccc(O)c(-c2cc(CC=C)ccc2OCCCC[N+](C)(C)CC(=O)NCCCCC)c1.[Br-]`, for which the MIC is 4 µg/mL.

The next series concerns Staphylococcus aureus. The series can be described thus: Antibacterial activity against methicillin-resistant Staphylococcus aureus clinical isolate M-18 assessed as inhibition of visible growth incubated for 16 to 18 hrs by CLSI method. Format: functional. To be noted: time 16-18 hrs, read-out: MIC100.
Consider `C=CCc1ccc(OCC[N+](C)(C)CC(=O)NCCCC)c(-c2ccc(OCC[N+](C)(C)CC(=O)NCCCC)c(CC=C)c2)c1.[Br-].[Br-]`, for which the MIC is 4 µg/mL.

In the case of `C=CCc1ccc(O)c(-c2cc(CC=C)ccc2OCCCC[N+](C)(C)CC(=O)NCCCCC)c1.[Br-]`, the MIC worked out at 4 µg/mL.

The subject of a further series is Staphylococcus aureus. The series can be described thus: Antibacterial activity against methicillin-resistant Staphylococcus aureus clinical isolate M-19 assessed as inhibition of visible growth incubated for 16 to 18 hrs by CLSI method. As to conditions: time 16-18 hrs, read-out: MIC100. Format: functional.
`C=CCc1ccc(OCC[N+](C)(C)CC(=O)NCCCC)c(-c2ccc(OCC[N+](C)(C)CC(=O)NCCCC)c(CC=C)c2)c1.[Br-].[Br-]`: the MIC amounted to 4 µg/mL.

Consider `C=CCc1ccc(O)c(-c2cc(CC=C)ccc2OCCCC[N+](C)(C)CC(=O)NCCCCC)c1.[Br-]`, for which the MIC is 4 µg/mL.

For a further series, the system named is Salmonella enterica. As to the kind of experiment: Antibacterial activity against Salmonella enterica 349812 assessed as inhibition of visible growth incubated for 16 to 18 hrs by CLSI method. Format: functional. To be noted: time 16-18 hrs, read-out: MIC100.
Take `C=CCc1ccc(OCC[N+](C)(C)CC(=O)NCCCC)c(-c2ccc(OCC[N+](C)(C)CC(=O)NCCCC)c(CC=C)c2)c1.[Br-].[Br-]`: the MIC was determined as 64 µg/mL.

Take `C=CCc1ccc(O)c(-c2cc(CC=C)ccc2OCCCC[N+](C)(C)CC(=O)NCCCCC)c1.[Br-]`: the MIC stood at 32 µg/mL.

Another series deals with Salmonella enterica. As to the kind of experiment: Antibacterial activity against Salmonella enterica 8389 assessed as inhibition of visible growth incubated for 16 to 18 hrs by CLSI method. Format: functional. To be noted: time 16-18 hrs, read-out: MIC100.
As to `C=CCc1ccc(OCC[N+](C)(C)CC(=O)NCCCC)c(-c2ccc(OCC[N+](C)(C)CC(=O)NCCCC)c(CC=C)c2)c1.[Br-].[Br-]`, the MIC amounted to 32 µg/mL.

For `C=CCc1ccc(O)c(-c2cc(CC=C)ccc2OCCCC[N+](C)(C)CC(=O)NCCCCC)c1.[Br-]`, the MIC stood at 32 µg/mL.

Another series relates to Staphylococcus aureus. As to the kind of experiment: Antibacterial activity against methicillin-resistant Staphylococcus aureus clinical isolate M-17 assessed as inhibition of visible growth incubated for 16 to 18 hrs by CLSI method. Format: functional. As to conditions: time 16-18 hrs, read-out: MIC100.
As for `C=CCc1ccc(OCC[N+](C)(C)CC(=O)NCCCC)c(-c2ccc(OCC[N+](C)(C)CC(=O)NCCCC)c(CC=C)c2)c1.[Br-].[Br-]`, the MIC was found to be 8 µg/mL.

As for `C=CCc1ccc(O)c(-c2cc(CC=C)ccc2OCCCC[N+](C)(C)CC(=O)NCCCCC)c1.[Br-]`, the MIC turned out to be 4 µg/mL.

Tested on in another series: not listed separately
The series can be described thus: Hemolytic activity in sheep RBC assessed as hemolysis incubated for 1 hr. Format: ADME, cell-based, Ovis aries, Erythrocyte. To be noted: sheep red blood cells (erythrocytes).
Regarding `C=CCc1ccc(OCC[N+](C)(C)CC(=O)NCCCC)c(-c2ccc(OCC[N+](C)(C)CC(=O)NCCCC)c(CC=C)c2)c1.[Br-].[Br-]`, the HC50 at 1 h came out at 832 µg/mL.

In the case of `C=CCc1ccc(O)c(-c2cc(CC=C)ccc2OCCCC[N+](C)(C)CC(=O)NCCCCC)c1.[Br-]`, the HC50 at 1 h turned out to be 643 µg/mL.

The test system of the next series is Micrococcus luteus. As to the kind of experiment: Antibacterial activity against Micrococcus luteus assessed as inhibition of visible growth incubated for 16 to 18 hrs by CLSI method. Format: functional. To be noted: time 16-18 hrs, read-out: MIC100.
As for `C=CCc1ccc(OCC[N+](C)(C)CC(=O)NCCCC)c(-c2ccc(OCC[N+](C)(C)CC(=O)NCCCC)c(CC=C)c2)c1.[Br-].[Br-]`, the MIC came to 4 µg/mL.

Take `C=CCc1ccc(O)c(-c2cc(CC=C)ccc2OCCCC[N+](C)(C)CC(=O)NCCCCC)c1.[Br-]`: the MIC was found to be 4 µg/mL.

In a further series the test system is Bacillus subtilis. The series can be described thus: Antibacterial activity against Bacillus subtilis assessed as inhibition of visible growth incubated for 16 to 18 hrs by CLSI method. Format: functional. To be noted: time 16-18 hrs, read-out: MIC100.
As to `C=CCc1ccc(OCC[N+](C)(C)CC(=O)NCCCC)c(-c2ccc(OCC[N+](C)(C)CC(=O)NCCCC)c(CC=C)c2)c1.[Br-].[Br-]`, the MIC came to 2 µg/mL.

On to `C=CCc1ccc(O)c(-c2cc(CC=C)ccc2OCCCC[N+](C)(C)CC(=O)NCCCCC)c1.[Br-]`, for which the MIC amounted to 2 µg/mL.

In another series the test system is Staphylococcus aureus. The series can be described thus: Antibacterial activity against methicillin-resistant Staphylococcus aureus clinical isolate M-14 assessed as inhibition of visible growth incubated for 16 to 18 hrs by CLSI method. Format: functional. To be noted: time 16-18 hrs, read-out: MIC100.
`C=CCc1ccc(OCC[N+](C)(C)CC(=O)NCCCC)c(-c2ccc(OCC[N+](C)(C)CC(=O)NCCCC)c(CC=C)c2)c1.[Br-].[Br-]`: the MIC was determined as 4 µg/mL.

In the case of `C=CCc1ccc(O)c(-c2cc(CC=C)ccc2OCCCC[N+](C)(C)CC(=O)NCCCCC)c1.[Br-]`, the MIC came out at 4 µg/mL.

The subject of a further series is Escherichia coli. The series can be described thus: Antibacterial activity against Escherichia coli ATCC25922 assessed as inhibition of visible growth incubated for 16 to 18 hrs by CLSI method. As to conditions: time 16-18 hrs, read-out: MIC100. Format: functional.
On to `C=CCc1ccc(OCC[N+](C)(C)CC(=O)NCCCC)c(-c2ccc(OCC[N+](C)(C)CC(=O)NCCCC)c(CC=C)c2)c1.[Br-].[Br-]`, for which the MIC was determined as 64 µg/mL.

As to `C=CCc1ccc(O)c(-c2cc(CC=C)ccc2OCCCC[N+](C)(C)CC(=O)NCCCCC)c1.[Br-]`, the MIC was 8 µg/mL.

In a further series the test system is Staphylococcus aureus. The series can be described thus: Antibacterial activity against methicillin-resistant Staphylococcus aureus clinical isolate M-15 assessed as inhibition of visible growth incubated for 16 to 18 hrs by CLSI method. To be noted: time 16-18 hrs, read-out: MIC100. Format: functional.
As for `C=CCc1ccc(OCC[N+](C)(C)CC(=O)NCCCC)c(-c2ccc(OCC[N+](C)(C)CC(=O)NCCCC)c(CC=C)c2)c1.[Br-].[Br-]`, the MIC was 8 µg/mL.

For the compound `C=CCc1ccc(O)c(-c2cc(CC=C)ccc2OCCCC[N+](C)(C)CC(=O)NCCCCC)c1.[Br-]`, the MIC was found to be 4 µg/mL.

Tested on in another series: not listed separately
The series can be described thus: Selectivity index, HC50 for hemolytic activity in sheep RBC to MIC for antibacterial activity against Staphylococcus aureus ATCC29213. Format: toxicity. As to conditions: sheep red blood cells (erythrocytes), read-out: Selectivity Index.
Take `C=CCc1ccc(OCC[N+](C)(C)CC(=O)NCCCC)c(-c2ccc(OCC[N+](C)(C)CC(=O)NCCCC)c(CC=C)c2)c1.[Br-].[Br-]`: the selectivity ratio is 208.

On to `C=CCc1ccc(O)c(-c2cc(CC=C)ccc2OCCCC[N+](C)(C)CC(=O)NCCCCC)c1.[Br-]`, for which the selectivity ratio turned out to be 322.

For a further series, the system named is Staphylococcus aureus. As to the kind of experiment: Antibacterial activity against Staphylococcus aureus ATCC29213 assessed as inhibition of visible growth incubated for 16 to 18 hrs by CLSI method. Format: functional. As to conditions: time 16-18 hrs, read-out: MIC100.
In the case of `C=CCc1ccc(OCC[N+](C)(C)CC(=O)NCCCC)c(-c2ccc(OCC[N+](C)(C)CC(=O)NCCCC)c(CC=C)c2)c1.[Br-].[Br-]`, the MIC was 4 µg/mL.

For the compound `C=CCc1ccc(O)c(-c2cc(CC=C)ccc2OCCCC[N+](C)(C)CC(=O)NCCCCC)c1.[Br-]`, the MIC turned out to be 2 µg/mL.

Another series deals with Staphylococcus aureus. As to the kind of experiment: Antibacterial activity against methicillin-resistant Staphylococcus aureus clinical isolate M-12 assessed as inhibition of visible growth incubated for 16 to 18 hrs by CLSI method. As to conditions: time 16-18 hrs, read-out: MIC100. Format: functional.
With `C=CCc1ccc(OCC[N+](C)(C)CC(=O)NCCCC)c(-c2ccc(OCC[N+](C)(C)CC(=O)NCCCC)c(CC=C)c2)c1.[Br-].[Br-]`, the MIC came out at 4 µg/mL.

In the case of `C=CCc1ccc(O)c(-c2cc(CC=C)ccc2OCCCC[N+](C)(C)CC(=O)NCCCCC)c1.[Br-]`, the MIC stood at 4 µg/mL.

The subject of another series is Enterococcus faecalis. The series can be described thus: Antibacterial activity against Enterococcus faecalis ATCC29212 assessed as inhibition of visible growth incubated for 16 to 18 hrs by CLSI method. Format: functional. As to conditions: time 16-18 hrs, read-out: MIC100.
As to `C=CCc1ccc(OCC[N+](C)(C)CC(=O)NCCCC)c(-c2ccc(OCC[N+](C)(C)CC(=O)NCCCC)c(CC=C)c2)c1.[Br-].[Br-]`, the MIC worked out at 8 µg/mL.

Regarding `C=CCc1ccc(O)c(-c2cc(CC=C)ccc2OCCCC[N+](C)(C)CC(=O)NCCCCC)c1.[Br-]`, the MIC stood at 8 µg/mL.

Another series relates to Staphylococcus aureus. The series can be described thus: Antibacterial activity against methicillin-resistant Staphylococcus aureus clinical isolate M-13 assessed as inhibition of visible growth incubated for 16 to 18 hrs by CLSI method. Format: functional. To be noted: time 16-18 hrs, read-out: MIC100.
As to `C=CCc1ccc(OCC[N+](C)(C)CC(=O)NCCCC)c(-c2ccc(OCC[N+](C)(C)CC(=O)NCCCC)c(CC=C)c2)c1.[Br-].[Br-]`, the MIC is 4 µg/mL.

Turning to `C=CCc1ccc(O)c(-c2cc(CC=C)ccc2OCCCC[N+](C)(C)CC(=O)NCCCCC)c1.[Br-]`, the MIC was determined as 4 µg/mL.

The next series concerns Staphylococcus aureus. The series can be described thus: Antibacterial activity against methicillin-resistant Staphylococcus aureus clinical isolate M-20 assessed as inhibition of visible growth incubated for 16 to 18 hrs by CLSI method. Format: functional. As to conditions: time 16-18 hrs, read-out: MIC100.
Consider `C=CCc1ccc(OCC[N+](C)(C)CC(=O)NCCCC)c(-c2ccc(OCC[N+](C)(C)CC(=O)NCCCC)c(CC=C)c2)c1.[Br-].[Br-]`, for which the MIC was 8 µg/mL.

Consider `C=CCc1ccc(O)c(-c2cc(CC=C)ccc2OCCCC[N+](C)(C)CC(=O)NCCCCC)c1.[Br-]`, for which the MIC came out at 4 µg/mL.

Another series has as its system Stenotrophomonas maltophilia. As to the kind of experiment: Antibacterial activity against Stenotrophomonas maltophilia assessed as inhibition of visible growth incubated for 16 to 18 hrs by CLSI method. Format: functional. To be noted: time 16-18 hrs, read-out: MIC100.
On to `C=CCc1ccc(OCC[N+](C)(C)CC(=O)NCCCC)c(-c2ccc(OCC[N+](C)(C)CC(=O)NCCCC)c(CC=C)c2)c1.[Br-].[Br-]`, for which the MIC worked out at 32 µg/mL.

Consider `C=CCc1ccc(O)c(-c2cc(CC=C)ccc2OCCCC[N+](C)(C)CC(=O)NCCCCC)c1.[Br-]`, for which the MIC was determined as 32 µg/mL.

By HC50 is commonly meant the concentration that lyses half of the red blood cells.
